Source: patent US10342867B2 (priority 2014, dated 2019)

Columns and labels:
[1] = rabbit, in vivo
[2] = rabbit, in vivo; remark: listed apart in the source
[3] = rabbit, in vivo; remark: listed apart in the source
[4] = rabbit, in vivo; remark: listed apart in the source
[5] = rabbit, in vivo; remark: listed apart in the source

Monosulphate heptadecylmaltose [M10-MONO]
Reactogenicity 1 week post immunization 2, GMS [1]: 1.34
Reactogenicity 1 week post immunization 2, antilog [1]: 22
Reactogenicity 4 weeks post immunization 1, GMS [1]: 1.26
Reactogenicity 4 weeks post immunization 1, antilog [1]: 18
Body temperature one day after the first immunization, Mean [2]: 38.9 °C
Body temperature one day after the second immunization, Mean [2]: 39.2 °C
Body weight gain one week post immunization 1, mean [3]: 35 g
Body weight gain two weeks post immunization 1, mean [3]: 49 g
Number of animals demonstrating a detectable adverse local reaction four weeks after the first immunization [4]: 0/6
Number of animals demonstrating a detectable adverse local reaction one week after the second immunization [4]: 0/6
Increase in body temperature one day post immunization 1, mean [5]: 0.5 °C
Increase in body temperature two days post immunization 1, mean [5]: 0.1 °C
increases in body temperature in comparison to the corresponding POLY counterpart [5]: lower increases

Monosulphate heptadodecylmaltose [M12-MONO]
Body temperature one day after the first immunization, Mean [2]: 39.0 °C
Body temperature one day after the second immunization, Mean [2]: 39.2 °C
Number of animals demonstrating a detectable adverse local reaction four weeks after the first immunization [4]: 0/6
Number of animals demonstrating a detectable adverse local reaction one week after the second immunization [4]: 0/6

Monosulphate tetradodecyl galactose [G12-MONO]
Body temperature one day after the first immunization, Mean [2]: 39.1 °C
Body temperature one day after the second immunization, Mean [2]: 39.3 °C
Number of animals demonstrating a detectable adverse local reaction four weeks after the first immunization [4]: 1/6 (discoloration, loss
Number of animals demonstrating a detectable adverse local reaction one week after the second immunization [4]: 1/6 (granuloma)

maltose decanoic acid polysulphate ester [M10-POLY]
Reactogenicity 1 week post immunization 2, GMS [1]: 3.37
Reactogenicity 4 weeks post immunization 1, GMS [1]: 1.73
Reactogenicity 4 weeks post immunization 1, antilog [1]: 53
Body weight gain one week post immunization 1, mean [3]: 38 g
Body weight gain two weeks post immunization 1, mean [3]: 53 g
Increase in body temperature one day post immunization 1, mean [5]: 0.7 °C
Increase in body temperature two days post immunization 1, mean [5]: 0.5 °C
